28 compounds from the supplement of paper PMC6965134 can be followed below.

± gives the standard deviation of the averaged measurements.

The data set can be described thus: TIMS collisional cross section (CCS, N2) of the lipid ion; higher = larger ion cross section. The settings on record: ionization mode: negative, one isomer drawn. How it is done: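 Lipid extracts of human plasma (NIST SRM 1950), mouse liver or HeLa cells were separated by nanoflow C18 LC (30 min gradient) and analysed by TIMS-PASEF on a timsTOF Pro. Ion mobility was calibrated with the Agilent tuning mix (negative mode ions) and converted to collisional cross sections (Mason–Schamp, N2).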
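Note: lipids from MTBE extraction, five replicate injections per sample, 100 ms TIMS ramp spanning 0.6–1.95 Vs/cm², lipid identity assigned from PASEF MS/MS spectra.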

On to `CCCCCCCCCCCCCCCC(=O)OC[C@H](COP(=O)([O-])OCC[N+](C)(C)C)OC(=O)CCCCCCCCCCCCCCC` [PC 16:0_16:0], for which the “TIMS collisional cross section” value (sample type: Human plasma, ion (formula + adduct): [C40H80NO8P+HCOO] 1-) is recorded as 289.35 ± 2.3 Å² and the “TIMS collisional cross section” value (sample type: Mouse Liver, ion (formula + adduct): [C40H80NO8P+HCOO] 1-) turned out to be 287.7 Å².

In the case of `CCCCC/C=C\C/C=C\C/C=C\C/C=C\CCCC(=O)OC[C@H](COP(=O)(O)OC[C@@H](O)CO)OC(=O)CCCCCCC/C=C\C/C=C\CCCCC` [PG 20:4_18:2], the “TIMS collisional cross section” value (sample type: Mouse Liver, ion (formula + adduct): [C44H75O10P-H] 1-) is 284.1 Å².

Take `CCCCC/C=C\C/C=C\C/C=C\C/C=C\CCCC(=O)O[C@H](COCCCCCCCCCCCCCCCC)COP(=O)([O-])OCC[N+](C)(C)C` [PC O- 16:0@_20:4]: the “TIMS collisional cross section” value came out at 299.9 Å² (sample type: Human plasma, ion (formula + adduct): [C44H82NO7P+AcO] 1-); 293.3 Å² (sample type: Human plasma, ion (formula + adduct): [C44H82NO7P+HCOO] 1-); 292.7 Å² (sample type: Mouse Liver, ion (formula + adduct): [C44H82NO7P+HCOO] 1-).

With `CC/C=C\C/C=C\C/C=C\C/C=C\C/C=C\C/C=C\CCC(=O)OC[C@H](COP(=O)(O)OCCN)OC(=O)CCCCCCC/C=C\C/C=C\CCCCC` [PE 22:6_18:2], the “TIMS collisional cross section” value (sample type: Mouse Liver, ion (formula + adduct): [C45H74NO8P-H] 1-) is reported as 276.6 Å².

For the compound `CCCCC/C=C\C/C=C\CCCCCCCC(=O)O[C@H](COCCCCCCCC/C=C\CCCCCC)COP(=O)([O-])OCC[N+](C)(C)C` [PC O- 16:1@_18:2], the “TIMS collisional cross section” value is recorded as 272.4 Å² (sample type: Human plasma, ion (formula + adduct): [C42H80NO7P-CH3] 1-) and 272.4 Å² (sample type: Mouse Liver, ion (formula + adduct): [C42H80NO7P-CH3] 1-).

As for `CCCCC/C=C\C/C=C\CCCCCCCC(=O)OC[C@H](COP(=O)(O)OC1[C@H](O)[C@H](O)C(O)[C@H](O)[C@H]1O)OC(=O)CCCCCCC/C=C\CCCCCCCC` (stereo not given in full) [PI 18:2_18:1], the “TIMS collisional cross section” value (sample type: Human plasma, ion (formula + adduct): [C45H81O13P-H] 1-) worked out at 292.5 Å² and the “TIMS collisional cross section” value (sample type: Mouse Liver, ion (formula + adduct): [C45H81O13P-H] 1-) is recorded as 291.9 Å².

Consider `CCCCCCCC/C=C\CCCCCCCC(=O)O[C@H](CO/C=C\CCCCCCCCCCCC)COP(=O)([O-])OCC[N+](C)(C)C` [PC P- 14:0@_18:1], for which the “TIMS collisional cross section” value (sample type: Human plasma, ion (formula + adduct): [C40H78NO7P-CH3] 1-) worked out at 267.3 Å².

With `CCCCC/C=C\C/C=C\C/C=C\C/C=C\CCCC(=O)OC[C@H](COP(=O)(O)OC1[C@H](O)[C@H](O)C(O)[C@H](O)[C@H]1O)OC(=O)CCCCCCCCCCCCCCC` (stereo not given in full) [PI 20:4@_16:0], where the note is “sample type: Mouse Liver, ion (formula + adduct): [C45H79O13P-H] 1-”, the “TIMS collisional cross section” value is reported as 303.5 Å².

With `CCCCC/C=C\C/C=C\CCCCCCCC(=O)O[C@H](COC(=O)CCCCCCCCCCCCCCCC)COP(=O)([O-])OCC[N+](C)(C)C` [PC 17:0_18:2], the “TIMS collisional cross section” value (sample type: Mouse Liver, ion (formula + adduct): [C43H82NO8P+HCOO] 1-) is given as 293.3 Å².

`CCCCC/C=C\C/C=C\C/C=C\C/C=C\CCCC(=O)O[C@H](COC(=O)CCCCCCCCCCCCCCCCCCC)COP(=O)([O-])OCC[N+](C)(C)C` [PC 20:0_20:4]: under “sample type: Mouse Liver, ion (formula + adduct): [C48H88NO8P+HCOO] 1-”, the “TIMS collisional cross section” value is 304.5 Å².

For `CCCCCCCCCCCCCCCCCC(=O)O[C@H](COC(=O)CCCCCCCCCCCCCCC)COP(=O)([O-])OCC[N+](C)(C)C` [PC 16:0_18:0], the “TIMS collisional cross section” value runs as follows: (sample type: Human plasma, ion (formula + adduct): [C42H84NO8P+HCOO] 1-) 293.4 Å²; (sample type: Mouse Liver, ion (formula + adduct): [C42H84NO8P+AcO] 1-) 299.1 Å²; (sample type: Mouse Liver, ion (formula + adduct): [C42H84NO8P+HCOO] 1-) 293.4 Å².

Consider `CCCCC/C=C\C/C=C\C/C=C\C/C=C\CCCC(=O)O[C@H](COC(=O)CCCCCCCCCCCCCC)COP(=O)([O-])OCC[N+](C)(C)C` [PC 15:0@_20:4], for which the “TIMS collisional cross section” value was 295.5 Å² (sample type: Human plasma, ion (formula + adduct): [C43H78NO8P+OAcO] 1-) and 285.5 ± 12 Å² (sample type: Mouse Liver, ion (formula + adduct): [C43H78NO8P-H] 1-).

For `CCCCCCC/C=C\CCCCCCCC(=O)O[C@H](COCCCCCCCCCCCCCCCCCC)COP(=O)(O)OCCN` [PE O- 18:0@_17:1], where the note is “sample type: Human plasma, ion (formula + adduct): [C40H80NO7P+AcO] 1-”, the “TIMS collisional cross section” value stood at 292.4 Å².

As to `CCCCC/C=C\C/C=C\C/C=C\C/C=C\C/C=C\CCC(=O)O[C@H](COC(=O)CCCCCCC/C=C\CCCCCC)COP(=O)([O-])OCC[N+](C)(C)C` [PC 16:1@_22:5], the “TIMS collisional cross section” value (sample type: Mouse Liver, ion (formula + adduct): [C46H80NO8P-CH3] 1-) came to 280.1 Å².

For the compound `CCCCC/C=C\C/C=C\C/C=C\CCCCC(=O)O[C@H](COC(=O)CCCCCCCCCCCCCCC)COP(=O)([O-])OCC[N+](C)(C)C` [PC 16:0@_18:3], under “sample type: Human plasma, ion (formula + adduct): [C42H78NO8P+AcO] 1-”, the “TIMS collisional cross section” value stood at 295.1 Å².

For `CCCCCC/C=C\CCCCCCCC(=O)O[C@H](COC(=O)CCCCCCCCCCCCC)COP(=O)([O-])OCC[N+](C)(C)C` [PC 14:0@_16:1], the “TIMS collisional cross section” value (sample type: Mouse Liver, ion (formula + adduct): [C38H74NO8P+HCOO] 1-) was 280.9 Å².

`CC/C=C\C/C=C\C/C=C\C/C=C\C/C=C\CCCC(=O)O[C@H](CO/C=C\CCCCCCCCCCCCCCCC)COP(=O)(O)OCCN` [PE P- 18:0@_20:5]: the “TIMS collisional cross section” value (sample type: Mouse Liver, ion (formula + adduct): [C43H76NO7P-H] 1-) was determined as 274.5 Å².

For `CCCCCCCC/C=C\CCCCCCCC(=O)OCC(COP(=O)(O)OCCN)OC(=O)CCCCCCC/C=C\CCCCCCCC` (stereo not given) [PE 18:1_18:1], where the note is “sample type: Human plasma, ion (formula + adduct): [C41H78NO8P-H] 1-”, the “TIMS collisional cross section” value is 272.3 Å².

`CC/C=C\C/C=C\C/C=C\C/C=C\C/C=C\CCCC(=O)OC[C@H](COP(=O)(O)OC[C@H](N)C(=O)O)OC(=O)CCCCCCCCCCCCCCC` [PS 20:5_16:0]: the “TIMS collisional cross section” value (sample type: Mouse Liver, ion (formula + adduct): [C42H72NO10P-H] 1-) turned out to be 279 Å².

`CC/C=C\C/C=C\C/C=C\C/C=C\C/C=C\C/C=C\CCC(=O)O[C@H](COC(=O)CCC/C=C\C/C=C\C/C=C\C/C=C\CCCCC)COP(=O)(O)OC[C@@H](O)CO` [PG 20:4_22:6]: the “TIMS collisional cross section” value (sample type: Mouse Liver, ion (formula + adduct): [C48H75O10P-H] 1-) turned out to be 291.4 Å².

In the case of `CCCCCCCCCCCCCCCCCC/C=C\OC[C@@H](O)COP(=O)(O)OCCN` [LPE O- 20:0_0:0], the “TIMS collisional cross section” value (sample type: Human plasma, ion (formula + adduct): [C25H52NO6P-H] 1-) was 223.9 Å² and the “TIMS collisional cross section” value (sample type: Mouse Liver, ion (formula + adduct): [C25H52NO6P-H] 1-) was 222.7 Å².

Regarding `CCCCC/C=C\C/C=C\C/C=C\CCCCC(=O)O[C@H](COC(=O)CCCCCCCCCCCCCCC)COP(=O)([O-])OCC[N+](C)(C)C` [PC 16:0_18:3@], under “sample type: Human plasma, ion (formula + adduct): [C42H78NO8P+HCOO] 1-”, the “TIMS collisional cross section” value is 288.8 Å².

`CCCCC/C=C\C/C=C\C/C=C\C/C=C\CCCC(=O)OC[C@H](COP(=O)(O)OCCN)OC(=O)CCCCCCCCCCCCC` [PE 20:4_14:0]: the “TIMS collisional cross section” value (sample type: Mouse Liver, ion (formula + adduct): [C39H70NO8P-H] 1-) was 263.7 Å².

Take `CCCCCCCCCCCCCCCCCCOC[C@H](COP(=O)([O-])OCC[N+](C)(C)C)OC(=O)CCCCCCCCCCCCCCC` [PC O- 18:0@_16:0]: the “TIMS collisional cross section” value (sample type: Human plasma, ion (formula + adduct): [C42H86NO7P+HCOO] 1-) worked out at 293.5 Å².

On to `CC/C=C\C/C=C\C/C=C\C/C=C\C/C=C\C/C=C\CCC(=O)OC[C@@H](O)COP(=O)([O-])OCC[N+](C)(C)C` [LPC 22:6_0:0], for which the “TIMS collisional cross section” value runs as follows: (sample type: Human plasma, ion (formula + adduct): [C30H50NO7P+HCOO] 1-) 246.7 ± 0.42 Å²; (sample type: Human plasma, ion (formula + adduct): [C30H50NO7P-CH3] 1-) 230.4 Å²; (sample type: Mouse Liver, ion (formula + adduct): [C30H50NO7P+HCOO] 1-) 247 Å².

Turning to `CCCCC/C=C\C/C=C\C/C=C\CCCCCCC(=O)OC[C@H](COP(=O)(O)OC[C@H](N)C(=O)O)OC(=O)CCCCCCCCCCCCCCC` [PS 20:3@_16:0], the “TIMS collisional cross section” value (sample type: Mouse Liver, ion (formula + adduct): [C42H76NO10P-H] 1-) worked out at 281.3 Å².

Regarding `CCCCCCCC/C=C\CCCCCCCCOC[C@H](COP(=O)([O-])OCC[N+](C)(C)C)OC(=O)CCCCCCCCCCCCCCC` [PC O- 18:1@_16:0], the “TIMS collisional cross section” value (sample type: Human plasma, ion (formula + adduct): [C42H84NO7P+HCOO] 1-) was found to be 291.1 Å².

`CC/C=C\C/C=C\C/C=C\CCCCCCCC(=O)OC[C@@H](O)COP(=O)([O-])OCC[N+](C)(C)C` [LPC 18:3_0:0]: the “TIMS collisional cross section” value is, setting by setting: (sample type: Human plasma, ion (formula + adduct): [C26H48NO7P+HCOO] 1-) 238.3 ± 0.42 Å²; (sample type: Human plasma, ion (formula + adduct): [C26H48NO7P-CH3] 1-) 220.2 Å².
